Measured values published in US20140051576A1, “ACTIVE COMPOUND COMBINATIONS COMPRISING A (THIO)CARBOXAMIDE DERIVATIVE AND AN INSECTICIDAL OR ACARICIDAL OR NEMATICIDAL ACTIVE COMPOUND” (priority 2011, published 2014).
Where two headings read alike, the source gives them in different places.

What was measured:
[1] = test system: Myzus persicae; test: Myzus persicae - Test (MYZUPE spray application); format: in vivo
Text: Myzus persicae—Test; (MYZUPE Spray Application)
Chinese cabbage (Brassica pekinesis) leaf—disks infected with all instars of the green peach aphid (Myzus persicae), are sprayed with a preparation of the active ingredient at the desired concentration.
100% means that all aphids have been killed; 0% means that none of the aphids have been killed.

[2] = test system: Phaedon cochleariae; test: Phaedon cochleariae Larvae - Test (PHAECO spray application); format: in vivo
Text: Phaedon cochleariae—Test; (PHAECO Spray Application)
Solvent: 78 parts by weight of acetone • 1.5 parts by weight of N,N-dimethylformamide Emulsifier: 0.5 parts by weight of alkylarylpolyglycolether
Once dry, the leaf discs are infested with mustard beetle larvae (Phaedon cochleariae).

[3] = test system: Spodoptera frugiperda; test: whole plant or invertebrate
Procedure: Spodoptera frugiperda—Test (SPODFR Spray Application)
Solvent: 78.0 parts by weight acetone • 1.5 parts by weight N,N-dimethylformamide Emulsifier: 0.5 parts by weight alkylarylpolyglycolether
Maize (Zea mais) leaf sections are sprayed with a preparation of the active ingredient of the desired concentration. Once dry, the leaf sections are infested with larvae of the fall armyworm (Spodoptera frugiperda).
After the specified period of time, the mortality in % is determined. 100% means that all caterpillars have been killed and 0% means that none of the caterpillars have been killed.

[4] = test system: Tetranychus urticae; test: Tetranychus urticae - Test; OP-resistant (TETRUR spray application); format: in vivo; conditions: for Mortality in % after 6 days obs.: single active ingredient
Text: Tetranychus urticae—Test; OP-Resistant (TETRUR Spray Application)
French beans (Phaseolus vulgaris) which are heavily infested with all stages of the two spotted spidermite (Tetranychus urticae), are sprayed with a preparation of the active ingredient at the desired concentration.

[5] = Myzus persicae, 144 h, read-out: Mortality in % after 6 days obs.
[6] = Spodoptera frugiperda, 144 h, read-out: Mortality in % after 6 days obs.
[7] = Tetranychus urticae, 48 h, read-out: Mortality in % after 2 days obs.
[8] = Tetranychus urticae, 144 h, read-out: Mortality in % after 6 days obs.
[9] = Myzus persicae, 24 h, read-out: Mortality in % after 1 day obs.
[10] = Phaedon cochleariae, 144 h, read-out: Mortality in % after 6 days obs.

Fipronil [B-2B.2]
Mortality in % after 6 days obs. ([1]; 20 g/ha): 0%
Mortality in % after 6 days obs. ([2]; 0.16 g/ha): 50%
Mortality in % after 2 days obs. ([2]; 0.8 g/ha): 33%
Mortality in % after 2 days obs. ([2]; 4 g/ha): 67%
Mortality in % after 2 days obs. ([3]; 100 g/ha): 67%
Mortality in % after 6 days obs. ([4]; 100 g/ha): 0%

CCOC(=O)OC1=C(c2cc(C)ccc2C)C(=O)N[C@]12CC[C@@H](OC)CC2 [B-23B.1, Spirotetramat]
mortality at 4 g/ha [1, 5]: 70%
mortality at 20 g/ha [1, 5]: 70%
mortality at 20 g/ha [3, 6]: 0%
mortality at 4 g/ha [4, 7]: 0%
mortality at 20 g/ha [4, 7]: 0%
mortality at 0.8 g/ha [4, 8]: 70%

Abamectin [B-6.1]
Mortality in % after 6 days obs. ([2]; 0.16 g/ha): 33%
Mortality in % after 2 days obs. ([4]; 0.8 g/ha): 70%

Methiocarb [B-1A15]
Mortality in % after 6 days obs. ([2]; 20 g/ha): 33%
Mortality in % after 2 days obs. ([3]; 500 g/ha): 0%
Mortality in % after 6 days obs. ([3]; 500 g/ha): 33%
Mortality in % after 6 days obs. ([4]; 100 g/ha): 10%
Mortality in % after 2 days obs. ([4]; 500 g/ha): 0%

Cn1nc(C(F)F)c(C(=O)N(Cc2c(C(F)(F)F)ccc(Cl)c2F)C2CC2)c1F [A-18, N-[3-chloro-2-fluoro-6-(trifluoromethyl)benzyl]-N-cyclopropyl-3-(difluoromethyl)-5-fluoro-1-methyl-1H-pyrazole-4-carboxamide]
mortality at 500 g/ha [1, 9]: 0%
mortality at 500 g/ha [1, 5]: 0%
mortality at 500 g/ha ([2]; Phaedon cochleariae, 48 h, read-out: Mortality in % after 2 days obs.): 0%
mortality at 500 g/ha [2, 10]: 0%
mortality at 500 g/ha [3, 6]: 0%
mortality at 500 g/ha [4, 7]: 0%
mortality at 500 g/ha [4, 8]: 0%

CNC(=O)c1cc(Cl)cc(C)c1NC(=O)c1cc(Br)nn1-c1ncccc1Cl [B-26.1, Chlorantraniliprole (Rynaxypyr)]
Mortality in % after 6 days obs. ([1]; 0.8 g/ha): 0%
Mortality in % after 6 days obs. ([2]; 0.8 g/ha): 33%
Mortality in % after 2 days obs. ([2]; 4 g/ha): 50%
Mortality in % after 6 days obs. ([2]; 4 g/ha): 33%

Ethiprole [B-2B.1]
Mortality in % after 6 days obs. ([1]; 100 g/ha): 0%

CS/C(C)=N\OC(=O)N(C)SN(C)C(=O)O/N=C(\C)SC [B-1A.21, Thiodicarb]
Mortality in % after 6 days obs. ([1]; 100 g/ha): 0%
Mortality in % after 6 days obs. ([3]; 4 g/ha): 0%
Mortality in % after 6 days obs. ([3]; 20 g/ha): 33%
Mortality in % after 6 days obs. ([4]; 100 g/ha): 0%

CC1(C)[C@H](C(=O)O[C@H](C#N)c2cccc(Oc3ccccc3)c2)[C@@H]1C=C(Br)Br [B-3A.21, Deltamethrin]
mortality at 0.8 g/ha [1, 9]: 80%
mortality at 0.16 g/ha [1, 5]: 70%
mortality at 0.16 g/ha [2, 10]: 0%
mortality at 0.8 g/ha [2, 10]: 33%
mortality at 0.16 g/ha ([3]; Spodoptera frugiperda, 48 h, read-out: Mortality in % after 2 days obs.): 0%
mortality at 0.032 g/ha [3, 6]: 0%
mortality at 0.8 g/ha [3, 6]: 33%
mortality at 4 g/ha [4, 8]: 20%

CNC(=O)c1cc(C#N)cc(C)c1NC(=O)c1cc(Br)nn1-c1ncccc1Cl [B-26.2, Cyantraniliprole (Cyazypyr)]
Mortality in % after 1 day obs. ([1]; 0.8 g/ha): 0%
Mortality in % after 6 days obs. ([1]; 0.8 g/ha): 70%
Mortality in % after 2 days obs. ([2]; 0.8 g/ha): 0%
Mortality in % after 6 days obs. ([2]; 0.8 g/ha): 67%
Mortality in % after 6 days obs. ([3]; 0.16 g/ha): 0%
Mortality in % after 6 days obs. ([4]; 20 g/ha): 0%

CCOP(=S)(OCC)Oc1nc(Cl)c(Cl)cc1Cl [B-1B.10, Chlorpyrifos]
mortality at 0.8 g/ha [1, 5]: 0%
mortality at 20 g/ha [2, 10]: 0%
mortality at 4 g/ha [3, 6]: 67%
mortality at 20 g/ha [4, 7]: 0%
mortality at 4 g/ha [4, 8]: 0%

Transfluthrin [B-3A.46]
Mortality in % after 1 day obs. ([1]; 20 g/ha): 0%
Mortality in % after 6 days obs. ([1]; 20 g/ha): 0%
Mortality in % after 1 day obs. ([1]; 100 g/ha): 80%
Mortality in % after 6 days obs. ([2]; 4 g/ha): 0%
Mortality in % after 6 days obs. ([2]; 20 g/ha): 0%
Mortality in % after 2 days obs. ([2]; 100 g/ha): 67%
Mortality in % after 6 days obs. ([3]; 0.8 g/ha): 33%
Mortality in % after 6 days obs. ([3]; 4 g/ha): 33%
Mortality in % after 6 days obs. ([3]; 20 g/ha): 50%
Mortality in % after 6 days obs. ([4]; 100 g/ha): 0%
